Tested on: not listed separately
Test: Inhibition of pig heart MDH using […] as substrate
Set-up: species or system Sus scrofa

SMILES | IC50 [µM]
O=C1NC(=S)N(c2ccc(F)cc2)C(=O)/C1=C/c1ccco1 | 20
O=C(NCCO)Nc1ccc2nc(-c3ccco3)c(-c3ccco3)nc2c1 | > 62.5
O=C(Nc1ccc2nc(-c3ccco3)c(-c3ccco3)nc2c1)N1CCCC1 | > 62.5
O=C(Nc1ccc(Sc2nc3ccccc3s2)c(Cl)c1)c1cc(Br)cc(Br)c1O | 5.5
CNC(=O)Nc1ccc2nc(-c3ccco3)c(-c3ccco3)nc2c1 | > 62.5
Oc1ccc(NCn2nnc3ccccc32)cc1 | > 62.5
Cc1ccc(C)n1-c1ccc(O)c(C(=O)O)c1 | > 62.5
O=c1/c(=C/c2ccc(O)c(O)c2)sc2nc3ccccc3n12 | > 62.5
Nc1ccc(Nc2nc(-c3ccc(O)c(O)c3)cs2)cc1 | > 62.5
Cc1ccc(S(=O)(=O)Nc2ccc(-c3nc4ccc(NS(=O)(=O)c5ccc(C)cc5)cc4[nH]3)cc2)cc1 | > 62.5
O=C(O)c1ccc(-c2nc(-c3ccc(-c4ccc(-c5nc(-c6ccc(C(=O)O)cc6)[nH]c5-c5ccccc5)cc4)cc3)c(-c3ccccc3)[nH]2)cc1 | 57
O=C1NC(=S)N(Cc2ccco2)C(=O)/C1=C\c1ccc(-c2ccc([N+](=O)[O-])cc2)o1 | 19
O=C1/C(=C/c2ccc(O)c(O)c2)SC(=S)N1c1ccc(O)cc1 | > 62.5
O=C(/C=C/c1cccc([N+](=O)[O-])c1)c1ccc(NC(=O)c2ccco2)cc1 | > 62.5
O=C(/C=C/c1ccc([N+](=O)[O-])cc1)c1ccc(O)c(O)c1 | > 62.5
O=C(O)c1cccc2c1NC(c1cccc(Br)c1)C1CC=CC21 (stereo not given) | 50
O=C(O)C1Nc2ccc(Cl)cc2C2C=CCC12 (stereo not given) | > 62.5
CN(C)c1ccc(/C=C2/C(=O)NC(=S)N(Cc3ccco3)C2=O)cc1 | > 62.5

SMILES | IC50 [µM]
Cc1ccc(/C=C2/SC(=S)N(c3ccc(C(=O)O)c(O)c3)C2=O)o1 | > 62.5
Cn1c(=O)c(C(=O)Nc2ccncc2)c(O)c2ccccc21 | > 62.5
COC(=O)c1ccc(-c2ccc(/C=C3/SC(=S)NC3=O)o2)cc1 | > 62.5
O=c1c([N+](=O)[O-])c(Cl)c2ccccc2n1Cc1ccccc1 | > 62.5
O=C(O)c1cccc2c1NC(c1ccccc1F)C1CC=CC21 (stereo not given) | > 62.5
O=c1[nH]nc2cc(O)c3ccccc3n12 | > 62.5
O=C(/C=C/c1ccco1)c1ccc(NC(=O)c2cccs2)cc1 | > 62.5
CCOc1ccc(N2C(=O)NC(=O)/C(=C/c3ccc(O)c(O)c3)C2=O)cc1 | > 62.5
COc1cccc(/C=C2/SC(=S)N(CCC(=O)Nc3ccc(O)cc3)C2=O)c1 | > 62.5
CNC(=O)Oc1c(Br)cc2sc(=O)oc2c1Br | > 62.5
O=C(Nc1cc([N+](=O)[O-])ccc1O)c1ccc2c(c1)C(=O)N(Cc1ccccc1)C2=O | > 62.5
COc1ccc(C(=O)N/N=C/c2ccc(O)c3ncccc23)cc1 | > 62.5
O=C(CC1Nc2cccc3cccc(c23)NC1=O)Nc1cccc([N+](=O)[O-])c1 (stereo not given) | > 62.5
CC(=O)c1cc2c(cc1NC(=O)c1ccccc1Br)OCCO2 | > 62.5
COc1cc(/C=C2/C(=N)N3N=C(CC(C)C)SC3=NC2=O)ccc1OC(=O)c1ccc(F)cc1 | > 62.5
Nc1nnc(SCC(=O)c2ccc(-c3ccccc3)cc2)s1 | > 62.5
Cc1ccc(-c2ccc(NC(=O)/C=C/c3ccco3)cc2)o1 | > 62.5

Biological target: T1, E. coli GroEL/ES (Escherichia coli, UniProt P0A6F5)
Test: Inhibition of Escherichia coli GroEL/GroES expressed in Escherichia coli DH5alpha/BL21 (DE3) assessed as inhibition of denatured MDH refolding preincubated for 10 mins followed by ATP addition measured after 2 hrs by fluorescence based assay

T1 sequence (P0A6F5 whole entry, looked up): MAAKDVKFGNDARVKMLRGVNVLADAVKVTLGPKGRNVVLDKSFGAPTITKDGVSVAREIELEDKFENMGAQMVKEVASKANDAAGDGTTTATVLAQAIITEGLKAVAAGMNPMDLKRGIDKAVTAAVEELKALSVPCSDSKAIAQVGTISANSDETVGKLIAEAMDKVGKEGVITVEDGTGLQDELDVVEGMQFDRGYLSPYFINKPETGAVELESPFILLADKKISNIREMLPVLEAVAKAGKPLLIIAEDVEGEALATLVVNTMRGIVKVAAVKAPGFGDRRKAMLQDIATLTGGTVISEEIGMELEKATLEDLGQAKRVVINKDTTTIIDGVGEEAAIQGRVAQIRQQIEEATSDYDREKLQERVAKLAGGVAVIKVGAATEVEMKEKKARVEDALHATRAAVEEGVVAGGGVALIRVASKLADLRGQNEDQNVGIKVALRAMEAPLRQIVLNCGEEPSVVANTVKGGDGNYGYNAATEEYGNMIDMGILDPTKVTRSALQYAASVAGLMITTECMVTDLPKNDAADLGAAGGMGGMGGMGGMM

SMILES | IC50 [µM]
O=C1NC(=S)N(c2ccc(F)cc2)C(=O)/C1=C/c1ccco1 | 1.2
O=C(NCCO)Nc1ccc2nc(-c3ccco3)c(-c3ccco3)nc2c1 | 23
O=C(Nc1ccc2nc(-c3ccco3)c(-c3ccco3)nc2c1)N1CCCC1 | 14
O=C(Nc1ccc(Sc2nc3ccccc3s2)c(Cl)c1)c1cc(Br)cc(Br)c1O | 1.7
CNC(=O)Nc1ccc2nc(-c3ccco3)c(-c3ccco3)nc2c1 | 5.4
Oc1ccc(NCn2nnc3ccccc32)cc1 | 55
Cc1ccc(C)n1-c1ccc(O)c(C(=O)O)c1 | 0.62
O=c1/c(=C/c2ccc(O)c(O)c2)sc2nc3ccccc3n12 | 1.3
Nc1ccc(Nc2nc(-c3ccc(O)c(O)c3)cs2)cc1 | 5.9
Cc1ccc(S(=O)(=O)Nc2ccc(-c3nc4ccc(NS(=O)(=O)c5ccc(C)cc5)cc4[nH]3)cc2)cc1 | 0.11
O=C(O)c1ccc(-c2nc(-c3ccc(-c4ccc(-c5nc(-c6ccc(C(=O)O)cc6)[nH]c5-c5ccccc5)cc4)cc3)c(-c3ccccc3)[nH]2)cc1 | 0.44
O=C1NC(=S)N(Cc2ccco2)C(=O)/C1=C\c1ccc(-c2ccc([N+](=O)[O-])cc2)o1 | 0.7
O=C1/C(=C/c2ccc(O)c(O)c2)SC(=S)N1c1ccc(O)cc1 | 0.99
O=C(/C=C/c1cccc([N+](=O)[O-])c1)c1ccc(NC(=O)c2ccco2)cc1 | 1.8
O=C(/C=C/c1ccc([N+](=O)[O-])cc1)c1ccc(O)c(O)c1 | 2.4
O=C(O)c1cccc2c1NC(c1cccc(Br)c1)C1CC=CC21 (stereo not given) | 2.7
O=C(O)C1Nc2ccc(Cl)cc2C2C=CCC12 (stereo not given) | 2.7
CN(C)c1ccc(/C=C2/C(=O)NC(=S)N(Cc3ccco3)C2=O)cc1 | 5.9

SMILES | IC50 [µM]
Cc1ccc(/C=C2/SC(=S)N(c3ccc(C(=O)O)c(O)c3)C2=O)o1 | 6.1
Cn1c(=O)c(C(=O)Nc2ccncc2)c(O)c2ccccc21 | 7.3
COC(=O)c1ccc(-c2ccc(/C=C3/SC(=S)NC3=O)o2)cc1 | 8.4
O=c1c([N+](=O)[O-])c(Cl)c2ccccc2n1Cc1ccccc1 | 8.8
O=C(O)c1cccc2c1NC(c1ccccc1F)C1CC=CC21 (stereo not given) | 9.1
O=c1[nH]nc2cc(O)c3ccccc3n12 | 11
O=C(/C=C/c1ccco1)c1ccc(NC(=O)c2cccs2)cc1 | 17
CCOc1ccc(N2C(=O)NC(=O)/C(=C/c3ccc(O)c(O)c3)C2=O)cc1 | 24
COc1cccc(/C=C2/SC(=S)N(CCC(=O)Nc3ccc(O)cc3)C2=O)c1 | 33
CNC(=O)Oc1c(Br)cc2sc(=O)oc2c1Br | 35
O=C(Nc1cc([N+](=O)[O-])ccc1O)c1ccc2c(c1)C(=O)N(Cc1ccccc1)C2=O | 52
COc1ccc(C(=O)N/N=C/c2ccc(O)c3ncccc23)cc1 | 70
O=C(CC1Nc2cccc3cccc(c23)NC1=O)Nc1cccc([N+](=O)[O-])c1 (stereo not given) | 97
CC(=O)c1cc2c(cc1NC(=O)c1ccccc1Br)OCCO2 | > 100
COc1cc(/C=C2/C(=N)N3N=C(CC(C)C)SC3=NC2=O)ccc1OC(=O)c1ccc(F)cc1 | > 100
Nc1nnc(SCC(=O)c2ccc(-c3ccccc3)cc2)s1 | > 100
Cc1ccc(-c2ccc(NC(=O)/C=C/c3ccco3)cc2)o1 | > 100

Biological target: T1, E. coli GroEL/ES
Test: Inhibition of Escherichia coli GroEL/GroES-ATPase activity expressed in Escherichia coli DH5alpha/BL21 (DE3) assessed as inhibition of denatured MDH refolding preincubated for 10 mins followed by ATP addition measured after 2 hrs by fluorescence based assay

SMILES | IC50 [µM]
O=C1NC(=S)N(c2ccc(F)cc2)C(=O)/C1=C/c1ccco1 | 25
O=C(NCCO)Nc1ccc2nc(-c3ccco3)c(-c3ccco3)nc2c1 | > 250
O=C(Nc1ccc2nc(-c3ccco3)c(-c3ccco3)nc2c1)N1CCCC1 | > 250
O=C(Nc1ccc(Sc2nc3ccccc3s2)c(Cl)c1)c1cc(Br)cc(Br)c1O | 13
CNC(=O)Nc1ccc2nc(-c3ccco3)c(-c3ccco3)nc2c1 | > 250
Oc1ccc(NCn2nnc3ccccc32)cc1 | 130
Cc1ccc(C)n1-c1ccc(O)c(C(=O)O)c1 | > 250
O=c1/c(=C/c2ccc(O)c(O)c2)sc2nc3ccccc3n12 | 9.8
Nc1ccc(Nc2nc(-c3ccc(O)c(O)c3)cs2)cc1 | 23
Cc1ccc(S(=O)(=O)Nc2ccc(-c3nc4ccc(NS(=O)(=O)c5ccc(C)cc5)cc4[nH]3)cc2)cc1 | 0.06
O=C(O)c1ccc(-c2nc(-c3ccc(-c4ccc(-c5nc(-c6ccc(C(=O)O)cc6)[nH]c5-c5ccccc5)cc4)cc3)c(-c3ccccc3)[nH]2)cc1 | 25
O=C1NC(=S)N(Cc2ccco2)C(=O)/C1=C\c1ccc(-c2ccc([N+](=O)[O-])cc2)o1 | 150
O=C1/C(=C/c2ccc(O)c(O)c2)SC(=S)N1c1ccc(O)cc1 | 3.3
O=C(/C=C/c1cccc([N+](=O)[O-])c1)c1ccc(NC(=O)c2ccco2)cc1 | > 250
O=C(/C=C/c1ccc([N+](=O)[O-])cc1)c1ccc(O)c(O)c1 | 71
O=C(O)c1cccc2c1NC(c1cccc(Br)c1)C1CC=CC21 (stereo not given) | 44
O=C(O)C1Nc2ccc(Cl)cc2C2C=CCC12 (stereo not given) | 68
CN(C)c1ccc(/C=C2/C(=O)NC(=S)N(Cc3ccco3)C2=O)cc1 | 169

SMILES | IC50 [µM]
Cc1ccc(/C=C2/SC(=S)N(c3ccc(C(=O)O)c(O)c3)C2=O)o1 | 48
Cn1c(=O)c(C(=O)Nc2ccncc2)c(O)c2ccccc21 | > 250
COC(=O)c1ccc(-c2ccc(/C=C3/SC(=S)NC3=O)o2)cc1 | 131
O=c1c([N+](=O)[O-])c(Cl)c2ccccc2n1Cc1ccccc1 | > 250
O=C(O)c1cccc2c1NC(c1ccccc1F)C1CC=CC21 (stereo not given) | 95
O=c1[nH]nc2cc(O)c3ccccc3n12 | > 250
O=C(/C=C/c1ccco1)c1ccc(NC(=O)c2cccs2)cc1 | 157
CCOc1ccc(N2C(=O)NC(=O)/C(=C/c3ccc(O)c(O)c3)C2=O)cc1 | 217
COc1cccc(/C=C2/SC(=S)N(CCC(=O)Nc3ccc(O)cc3)C2=O)c1 | > 250
CNC(=O)Oc1c(Br)cc2sc(=O)oc2c1Br | 236
O=C(Nc1cc([N+](=O)[O-])ccc1O)c1ccc2c(c1)C(=O)N(Cc1ccccc1)C2=O | > 250
COc1ccc(C(=O)N/N=C/c2ccc(O)c3ncccc23)cc1 | > 250
O=C(CC1Nc2cccc3cccc(c23)NC1=O)Nc1cccc([N+](=O)[O-])c1 (stereo not given) | 52
CC(=O)c1cc2c(cc1NC(=O)c1ccccc1Br)OCCO2 | > 250
COc1cc(/C=C2/C(=N)N3N=C(CC(C)C)SC3=NC2=O)ccc1OC(=O)c1ccc(F)cc1 | > 250
Nc1nnc(SCC(=O)c2ccc(-c3ccccc3)cc2)s1 | > 250
Cc1ccc(-c2ccc(NC(=O)/C=C/c3ccco3)cc2)o1 | > 250
